For data set [1], the system named is methicillin-sensitive Staphylococcus pseudintermedius. Kind of data set: MIC by broth microdilution against MSSP clinical isolates. Format: cell-based. The following applies: nine MSSP isolates, triplicate. The procedure: (§1) Fifteen isolates of S. pseudintermedius (nine MSSP and six MRSP), identified at the Indiana Animal Disease Diagnostic Laboratory from specimens collected from dogs admitted to the small animal teaching hospital at Purdue University, were included in the study. The specimens were not collected specifically for this research study but were obtained from patients admitted to the hospital for treatment. Clinical specimens were inoculated onto 5% sheep blood agar and incubated at 35°C for 18–24 hours. Standard methods including examination of colony morphology and hemolysis and biochemical tests such as tube coagulase, Voges-Proskauer (VP) and fermentation tests for maltose, trehalose and lactose, were used in addition to matrix-assisted laser desorption ionization time of flight mass spectrometry to identify isolates. Antimicrobial susceptibility was determined by broth microdilution using the SensiTitre (Thermofisher Scientific).
(§2) Bacteria were prepared in phosphate-buffered saline (PBS) until a McFarland standard of 0.5 was achieved. The solution was subsequently diluted 1:300 in Mueller-Hinton broth (MHB) to reach a starting inoculum of 1 × 10^5 colony-forming units (CFU/mL). Bacteria were then transferred to a 96-well microtiter plate. Thiazole compounds and antibiotics were added (in triplicate) to wells in the first row of the microtiter plate and then serially diluted along the vertical axis. […] The MIC was categorized as the concentration where there was no visible growth of bacteria observed.
Background: Broth dilution looks for growth in wells or tubes with falling amounts of substance.

Data set [2] relates to methicillin-resistant Staphylococcus pseudintermedius. Briefly: MIC by broth microdilution against MRSP clinical isolates. Format: cell-based. The note with it: six MRSP isolates, triplicate. The method, then: as §1, §2
In data set [3] the test system is methicillin-sensitive Staphylococcus pseudintermedius. Briefly: MBC determination against MSSP clinical isolates. Format: cell-based. The following applies: nine MSSP isolates. The procedure:
(§3) The MBC was determined by plating 5 μL from wells on the 96-well microtiter plate (where the MIC was determined) where no growth was observed onto Tryptic soy agar (TSA) plates. […] The MBC was categorized as the concentration where ≥99% reduction in bacterial cell count was observed.

Data set [4] relates to methicillin-resistant Staphylococcus pseudintermedius. Briefly: MBC determination against MRSP clinical isolates. Format: cell-based. The following applies: six MRSP isolates. The procedure:
as §3

The subject of data set [5] is MRSP SP3. Kind of data set: Time-kill analysis against MRSP. Type of data set: cell-based, Staphylococcus pseudintermedius. The note with it: 4 × MIC, MRSP SP3, 24 hour incubation at 37°C. The method, then: MRSP SP3 cells in late logarithmic growth phase were diluted to ~1 × 10^6 CFU/mL and exposed to concentrations equivalent to 4 × MIC (in triplicate) of thiazole compounds 1–6 and rifampicin in MHB. Samples (20 μL) were collected after 0, 2, 4, 6, 8, 10, 12, and 24 hours of incubation at 37°C and subsequently serially diluted in PBS. Bacteria were then transferred to TSA plates and incubated at 37°C for 20–24 hours before viable CFU/mL values were determined.

The subject of the next data set is MRSP (SP3). Kind of data set: Multi-step resistance selection. Format: cell-based, Staphylococcus pseudintermedius. The method, then:
To assess the ability of MRSP to develop resistance to the thiazole compounds, a multi-step resistance selection experiment was performed, as described elsewhere. The broth microdilution method for MIC determination against a clinical isolate of MRSP (SP3) was repeated for ten passages over a period of ten days. The initial inoculum was prepared to a McFarland standard of 0.5. The solution was subsequently diluted 1:300 in MHB to reach a starting inoculum of 1 × 10^5 CFU/mL. For each subsequent passage, the inoculum for the MIC determination was adjusted to a final density of approximately 5 × 10^5 CFU/mL using the contents of a well containing a subinhibitory concentration of the compound (where bacterial growth was observed from the previous passage). Bacteria were then transferred to a new 96-well microtiter plate.

Data set [6] concerns MRSP SP3. Kind of data set: Checkerboard assay of thiazole compounds with oxacillin. Format: cell-based, Staphylococcus pseudintermedius. The procedure:
The relationship between the thiazole compounds and oxacillin was assessed via a standard checkerboard assay. Bacteria (MRSP SP3) equivalent to a McFarland standard of 0.5 were prepared in PBS. The bacteria were next diluted in MHB to achieve a starting cell density of 1 × 10^5 CFU/mL. MHB was transferred to all wells of a 96-well microtiter plate. […] Oxacillin was serially diluted along the abscissa of the microtiter plate while the thiazole compound was serially diluted along the ordinate. The plate was incubated for 22–24 hours at 37°C. The MIC of the test compound in combination with oxacillin was determined as the lowest concentration of each compound/antibiotic where no visible growth of bacteria was observed. The fractional inhibitory concentration index (ƩFIC) was calculated for each combination as described previously. A synergistic relationship was classified as an FIC index less than or equal to 0.5. […]

Data set [7] is described as follows: Kinetic (turbidimetric) solubility in PBS. Type of data set: physicochemical. The following applies: aqueous buffer, kinetic from dmso stock; phosphate-buffered saline; highest concentration with no precipitate; read-out: Solubility Limit. The method, then: The absorbance of the PBS-containing plate was measured prior to addition of the test agents to determine the background absorbance. After 2 hours, the presence of precipitate was detected by turbidity (absorbance at 540 nm).

The test system of data set [8] is MRSP SP3. Briefly: Post-antibiotic effect against MRSP. Type of data set: cell-based, Staphylococcus pseudintermedius. The following applies: 4 × MIC for one hour. The procedure:
A tube containing untreated bacterial cells served as a control. Afterward, the compound/antibiotic was washed out by diluting bacteria 1:1000 in MHB. Counts of CFU for all cultures were obtained after washing. Aliquots (100 μL) of bacteria were removed every hour (for 10 hours), serially diluted in PBS, and plated on TSA plates. TSA plates were incubated for 20 hours at 37°C before CFU values were determined.

For data set [9] the following is noted: human liver microsomes; cited from earlier work. In general terms: Liver microsomes are vesicles of endoplasmic reticulum, rich in cytochrome P450 enzymes.

Converted amounts (≈) assume the structure as drawn.

For orientation: MIC50 means the lowest concentration that inhibits either 50% of growth or 50% of the strains tested, depending on the study. A word on the MIC: it is the smallest concentration in the dilution series that meets the test's criterion for growth inhibition. The solubility is how much of the substance goes into solution per volume. On to `CCCCC#Cc1ccc(-c2nc(C)c(/C(C)=N/NC(=N)N)s2)cc1` [Compound 3], for which the MIC50 in [1] (lowest concentration inhibiting growth in 50% of isolates) was found to be 0.71 µg/mL (≈ 2.01 µM); in data set [2] (Staphylococcus pseudintermedius, read-out: MIC50), 0.48 µg/mL (≈ 1.36 µM). Further, the MIC is 0.18 to 0.94 µg/mL (≈ 0.509 to 2.66 µM) in data set [1] (read-out: MIC Range) and 1.41 µg/mL (≈ 3.99 µM) with MRSP (SP3) (Staphylococcus pseudintermedius, read-out: initial MIC). Also, the “MIC Range” value in [2] was 0.18 to 1.41 µg/mL. Further, the MBC was found to be 0.71 µg/mL (≈ 2.01 µM) in data set [3] (Staphylococcus pseudintermedius, lowest concentration that killed 50% of isolates, read-out: MBC50) and 0.71 µg/mL (≈ 2.01 µM) in data set [4] (Staphylococcus pseudintermedius, read-out: MBC50). Moreover, the “MBC Range” value in [3] and in [4] was 0.18 to 1.41 µg/mL throughout. Besides, in the data set with MRSP SP3 [5], the “time required to completely eliminate MRSP” value is “within two hours”. Moreover, the “development of resistance by MRSP” value in the data set on MRSP (SP3) (MRSP SP3, ten passages, resistance = greater than four-fold increase in initial MIC) is recorded as “not able to develop resistance”. In addition, the “shift in the MIC over ten passages” value in the data set with MRSP (SP3) (MRSP SP3, ten serial passages) is reported as “no change”. The relationship with oxacillin entry in the data set on MRSP SP3 [6] (checkerboard assay) is “synergistic”. Further, in the data set on MRSP SP3 [6] (combination with oxacillin, ≤ 0.5 synergistic, > 0.5 to ≤ 4.0 indifference, > 4 antagonistic), the ƩFIC stood at 0.38. The solubility at 2 h in data set [7] stood at 5.51 µg/mL (≈ 15.6 µM). Further, the “Post-antibiotic Effect” value in the data set on MRSP SP3 [8] is more than 9 h. For the same compound, in data set [9], the clearance rate was 3.7 µL/min/mg. In data set [9], the half-life entry was “more than 240 minutes”.

The values above are taken from PMC4472782, “Antibacterial Characterization of Novel Synthetic Thiazole Compounds against Methicillin-Resistant Staphylococcus pseudintermedius” (PLoS ONE, 2015).
